Assay results reported in US20250339569A1, “CARBONIC ANHYDRASE IX LIGANDS” (priority 2021, published 2025).
Starred links: 1 amine or outer side, 2 acyl side, 3 side chain; linkers in the order of their positions; H or OH if unused. Positions of bridges follow the written chain, without caps; N, C: chain ends. Non-standard residues stand in square brackets, D forms with d. Residues, ends and D or L forms follow the SMILES beside them. *: point of attachment. DOTA = O=C(O)CN1CCN(CC(=O)O)CCN(CC(=O)*)CCN(CC(=O)O)CC1; Pyridine(2,6-diCH2) = c1cc(C[*:1])nc(C[*:2])c1; Phe(4-NH2) = Nc1ccc(C[C@H](N)C(=O)O)cc1; Desaminotyrosyl = O=C(CCc1ccc(O)cc1)*; mXylylene = c1cc(C[*:1])cc(C[*:2])c1; X46 = NS(=O)(=O)c1c[nH]c(C(=O)*)c1; X2 = O=C(CN1CCC(N[*:1])CC1)[*:2]; tBuAla = CC(C)(C)C[C@H](N)C(=O)O; X1 = O=C(CN1CCN([*:1])CC1)[*:2]; Pen = CC(C)(S)[C@H](N)C(=O)O; Isovaleryl = CC(C)CC(=O)*; Thp = NC1(C(=O)O)CCOCC1

target: T1, CAIX-expressing human HT-29 colorectal cancer cells (Homo sapiens, UniProt Q16790); assay: FACS binding assay (IC50 determination, competition with tracer 3BP-2776 or 3BP-4149); settings: FACS binding assay, HT-29 cells, competition with tracer 3BP-2776 (10 nM, biotin-labeled), 4° C., 1 hour; read-out: pIC50 category (activity) (converted)
T1 construct: CAIX-expressing human HT-29 colorectal cancer cells; host or cells: HT-29 human colorectal cancer cells
In short: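 HT-29 cells in FACS buffer (PBS, 1% FCS) at 500.000 cells/ml were exposed to compounds competing with a labelled tracer, with biotinylated compounds detected by 1 μg/mL APC-streptavidin for 30 min on ice. APC/Cy5 median fluorescence was read by flow cytometry and IC50 derived by 4PL fit.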

IC50 [nM] | SMILES
10 to 79.4 | CC(C)C[C@@H]1NC(=O)[C@H](Cc2c[nH]c3ccccc23)NC(=O)[C@H](CC(=O)O)NC(=O)[C@H]2CCCN2C(=O)[C@H](CCC(=O)O)NC(=O)[C@@H](NC(=O)[C@H](Cc2ccc(O)cc2)NC(=O)[C@@H](NC(=O)CN2CCC(NC(=O)CN3CCN(CC(=O)O)CCN(CC(=O)O)CCN(CC(=O)O)CC3)CC2)C(C)C)CSCc2cccc(n2)CSC[C@@H](C(N)=O)NC(=O)[C@H](CO)NC(=O)[C@H](Cc2c[nH]c3ccccc23)NC(=O)[C@H]([C@@H](C)O)NC1=O [3BP-4140] ({DOTA}-[X2]VYCE[dP]DWLTWSC-NH2; linker 4-13 via Pyridine(2,6-diCH2))
100 to 794 | CC(=O)N[C@H](C(=O)N[C@@H](Cc1ccc(O)cc1)C(=O)N[C@H]1CSCc2cccc(c2)CSC[C@@H](C(N)=O)NC(=O)[C@H](CO)NC(=O)[C@H](Cc2c[nH]c3ccccc23)NC(=O)[C@@H]2CCC(=O)NCCCC[C@H](NC(=O)[C@H]3CCCN3C(=O)[C@H](CCC(=O)O)NC1=O)C(=O)N[C@@H](Cc1c[nH]c3ccccc13)C(=O)NC1(CCOCC1)C(=O)N2)C(C)C [3BP-3962] (Ac-VYCE[dP]KW[Thp]EWSC-NH2; linker 3-12 via mXylylene; lactam 6-9)
100 to 794 | CC(C)C[C@@H]1NC(=O)[C@H](Cc2ccc(NC(=O)c3cc(S(N)(=O)=O)c[nH]3)cc2)NC(=O)[C@H](CC(=O)O)NC(=O)[C@H]2CCCN2C(=O)[C@H](CCC(=O)O)NC(=O)[C@@H](NC(=O)[C@H](CCC(N)=O)NC(=O)CN2CCN(C(=O)CN3CCN(CC(=O)O)CCN(CC(=O)O)CCN(CC(=O)O)CC3)CC2)CSCc2cccc(c2)CSC[C@@H](C(N)=O)NC(=O)[C@H](CO)NC(=O)[C@H](Cc2c[nH]c3ccccc23)NC(=O)[C@H]([C@@H](C)O)NC1=O [3BP-4814] ({DOTA}-[X1]QCE[dP]D[Phe(4-NH2)](X46)LTWSC-NH2; linker 3-12 via mXylylene)
< 10 | CC(=O)N[C@H](C(=O)N[C@@H](Cc1ccc(O)cc1)C(=O)N[C@H]1CSCc2cccc(c2)CSC(C)(C)[C@@H](C(N)=O)NC(=O)[C@H](CO)NC(=O)[C@H](Cc2c[nH]c3ccccc23)NC(=O)[C@@H]2CCC(=O)NCCCC[C@H](NC(=O)[C@H]3CCCN3C(=O)[C@H](CCC(=O)O)NC1=O)C(=O)N[C@@H](Cc1c[nH]c3ccccc13)C(=O)N[C@@H](CC(C)C)C(=O)N2)C(C)C [3BP-3963] (Ac-VYCE[dP]KWLEWS[Pen]-NH2; linker 3-12 via mXylylene; lactam 6-9)

same assay, conditions: FACS competition on HT-29 cells, Tracer ID 3BP-2776 (10 nM, biotin-labeled), 4° C., 1 hour; read-out: pIC50 category (activity) (converted)

IC50 [nM] | SMILES
10 to 79.4 | CC(C)C[C@@H]1NC(=O)[C@H](Cc2c[nH]c3ccccc23)NC(=O)[C@H](CC(=O)O)NC(=O)[C@H]2CCCN2C(=O)[C@H](CCC(=O)O)NC(=O)[C@@H](NC(=O)CCc2ccc(O)cc2)CSCc2cccc(c2)CSC[C@@H](C(N)=O)NC(=O)[C@H](CO)NC(=O)[C@H](Cc2c[nH]c3ccccc23)NC(=O)[C@H]([C@@H](C)O)NC1=O [3BP-3731] (Desaminotyrosyl-CE[dP]DWLTWSC-NH2; linker 1-10 via mXylylene)
< 10 | CC(C)CC(=O)N[C@H](C(=O)N[C@@H](Cc1ccc(O)cc1)C(=O)N[C@H]1CSCc2cccc(c2)CSC[C@@H](C(N)=O)NC(=O)[C@H](CCC(N)=O)NC(=O)[C@H](Cc2c[nH]c3ccccc23)NC(=O)[C@H]([C@@H](C)O)NC(=O)[C@H](CC(C)C)NC(=O)[C@H](Cc2c[nH]c3ccccc23)NC(=O)[C@H](CC(=O)O)NC(=O)CNC(=O)[C@H](CCC(=O)O)NC1=O)C(C)C [3BP-3111] (Isovaleryl-VYCEGDWLTWQC-NH2; linker 3-12 via mXylylene)
< 10 | CC(=O)N[C@H](C(=O)N[C@@H](Cc1ccc(O)cc1)C(=O)N[C@H]1CSCc2cccc(c2)CSC[C@@H](C(N)=O)NC(=O)[C@H](CO)NC(=O)[C@H](Cc2c[nH]c3ccccc23)NC(=O)[C@@H]2CCC(=O)NCCCC[C@H](NC(=O)[C@H]3CCCN3C(=O)[C@H](CCC(=O)O)NC1=O)C(=O)N[C@@H](Cc1c[nH]c3ccccc13)C(=O)N[C@@H](CC(C)C)C(=O)N2)C(C)C [3BP-3890] (Ac-VYCE[dP]KWLEWSC-NH2; linker 3-12 via mXylylene; lactam 6-9)
< 10 | CC(=O)N[C@H](C(=O)N[C@@H](Cc1ccc(O)cc1)C(=O)N[C@H]1CSCc2cccc(c2)CSC[C@@H](C(N)=O)NC(=O)[C@H](CO)NC(=O)[C@H](Cc2c[nH]c3ccccc23)NC(=O)[C@H]2CCC(=O)NCCCC[C@H](NC(=O)[C@H]3CCCN3C(=O)[C@H](CCC(=O)O)NC1=O)C(=O)N[C@@H](Cc1c[nH]c3ccccc13)C(=O)N[C@@H](CC(C)C)C(=O)N2)C(C)C [3BP-3957] (Ac-VYCE[dP]KWL[dE]WSC-NH2; linker 3-12 via mXylylene; lactam 6-9)
10 to 79.4 | CC(=O)N[C@H](C(=O)N[C@@H](Cc1ccc(O)cc1)C(=O)N[C@@H]1C(=O)N[C@@H](CCC(=O)O)C(=O)NCC(=O)N[C@@H](CC(=O)O)C(=O)N[C@@H](Cc2c[nH]c3ccccc23)C(=O)N[C@@H](CC(C)C)C(=O)N[C@@H]([C@@H](C)O)C(=O)N[C@@H](Cc2c[nH]c3ccccc23)C(=O)N[C@@H](CCC(N)=O)C(=O)N[C@H](C(N)=O)CSCc2cccc(c2)CSC1(C)C)C(C)C [3BP-3063] (Ac-VY[Pen]EGDWLTWQC-NH2; linker 3-12 via mXylylene)
10 to 79.4 | CC(=O)N[C@H](C(=O)N[C@@H](Cc1ccc(O)cc1)C(=O)N[C@H]1CSCc2cccc(c2)CSC[C@@H](C(N)=O)NC(=O)[C@H](CCC(N)=O)NC(=O)[C@H](Cc2c[nH]c3ccccc23)NC(=O)[C@H]([C@@H](C)O)NC(=O)[C@H](CC(C)C)NC(=O)[C@H](Cc2c[nH]c3ccccc23)NC(=O)[C@H](C)NC(=O)CNC(=O)[C@H](CCC(=O)O)NC1=O)C(C)C [3BP-3053] (Ac-VYCEGAWLTWQC-NH2; linker 3-12 via mXylylene)
100 to 794 | CC(=O)N[C@H](C(=O)N[C@@H](Cc1ccc(O)cc1)C(=O)N[C@H]1CSCc2cccc(c2)CSC[C@@H](C(N)=O)NC(=O)[C@H](CCC(N)=O)NC(=O)[C@H](Cc2c[nH]c3ccccc23)NC(=O)[C@H]([C@@H](C)O)NC(=O)[C@H](C)NC(=O)[C@H](Cc2c[nH]c3ccccc23)NC(=O)[C@H](CC(=O)O)NC(=O)CNC(=O)[C@H](CCC(=O)O)NC1=O)C(C)C [3BP-3055] (Ac-VYCEGDWATWQC-NH2; linker 3-12 via mXylylene)
10 to 79.4 | CC(=O)N[C@H](C(=O)N[C@@H](Cc1ccc(O)cc1)C(=O)N[C@H]1CSCc2cccc(c2)CSC[C@@H](C(N)=O)NC(=O)[C@H](CO)NC(=O)[C@H](Cc2c[nH]c3ccccc23)NC(=O)[C@@H]2CCC(=O)NCCCC[C@H](NC1=O)C(=O)N1CCC[C@@H]1C(=O)N[C@@H](CC(=O)O)C(=O)N[C@@H](Cc1c[nH]c3ccccc13)C(=O)N[C@@H](CC(C)C)C(=O)N2)C(C)C [3BP-3888] (Ac-VYCK[dP]DWLEWSC-NH2; linker 3-12 via mXylylene; lactam 4-9)
< 10 | CC(=O)N[C@H](C(=O)N[C@@H](Cc1ccc(O)cc1)C(=O)N[C@H]1CSCc2cccc(c2)CSC[C@@H](C(N)=O)NC(=O)CNC(=O)[C@H](Cc2c[nH]c3ccccc23)NC(=O)[C@H]([C@@H](C)O)NC(=O)[C@H](CC(C)C)NC(=O)[C@H](Cc2c[nH]c3ccccc23)NC(=O)[C@H](CC(=O)O)NC(=O)[C@@H](C)NC(=O)[C@H](CCC(=O)O)NC1=O)C(C)C [3BP-3284] (Ac-VYCE[dA]DWLTWGC-NH2; linker 3-12 via mXylylene)
< 10 | CC(=O)N[C@H](C(=O)N[C@@H](Cc1ccc(O)cc1)C(=O)N[C@H]1CSCc2cccc(c2)CSC[C@@H](C(N)=O)NC(=O)[C@H](CCC(N)=O)NC(=O)[C@H](Cc2c[nH]c3ccccc23)NC(=O)[C@H]([C@@H](C)O)NC(=O)[C@H](CC(C)(C)C)NC(=O)[C@H](Cc2c[nH]c3ccccc23)NC(=O)[C@H](CC(=O)O)NC(=O)CNC(=O)[C@H](CCC(=O)O)NC1=O)C(C)C [3BP-3065] (Ac-VYCEGDW[tBuAla]TWQC-NH2; linker 3-12 via mXylylene)
100 to 794 | CC(=O)N[C@H](C(=O)N[C@@H](Cc1ccc(O)cc1)C(=O)N[C@H]1CSCc2cccc(c2)CSC[C@@H](C(N)=O)NC(=O)[C@H](CCC(N)=O)NC(=O)[C@H](Cc2c[nH]c3ccccc23)NC(=O)[C@H]([C@@H](C)O)NC(=O)[C@H](CC(C)C)NC(=O)[C@H](Cc2c[nH]c3ccccc23)NC(=O)[C@H](CC(=O)O)NC(=O)CNC(=O)[C@@H](CCC(=O)O)NC1=O)C(C)C [3BP-3045] (Ac-VYC[dE]GDWLTWQC-NH2; linker 3-12 via mXylylene)
< 10 | CC(=O)N[C@H](C(=O)N[C@@H](Cc1ccc(O)cc1)C(=O)N[C@H]1CSCc2cccc(c2)CSC(C)(C)[C@@H](C(N)=O)NC(=O)[C@H](C)NC(=O)[C@H](Cc2c[nH]c3ccccc23)NC(=O)[C@H]([C@@H](C)O)NC(=O)[C@H](CC(C)C)NC(=O)[C@H](Cc2c[nH]c3ccccc23)NC(=O)[C@H](CC(=O)O)NC(=O)[C@H]2CCCN2C(=O)[C@H](CCC(=O)O)NC1=O)C(C)C [3BP-3492] (Ac-VYCE[dP]DWLTWA[Pen]-NH2; linker 3-12 via mXylylene)
< 10 | CC(C)C[C@@H]1NC(=O)[C@H](Cc2ccccc2)NC(=O)[C@H](CC(=O)O)NC(=O)[C@H]2CCCN2C(=O)[C@H](CCC(=O)O)NC(=O)[C@@H](NC(=O)[C@H](Cc2ccc(O)cc2)NC(=O)[C@@H](NC(=O)CN2CCC(NC(=O)CN3CCN(CC(=O)O)CCN(CC(=O)O)CCN(CC(=O)O)CC3)CC2)C(C)C)CSCc2cccc(c2)CSC[C@@H](C(N)=O)NC(=O)[C@H](CO)NC(=O)[C@H](Cc2c[nH]c3ccccc23)NC(=O)[C@H]([C@@H](C)O)NC1=O [3BP-3596] ({DOTA}-[X2]VYCE[dP]DFLTWSC-NH2; linker 4-13 via mXylylene)
10 to 79.4 | CC(=O)N[C@H](C(=O)N[C@@H](Cc1ccc(O)cc1)C(=O)N[C@H]1CSCc2cccc(c2)CSC[C@@H](C(N)=O)NC(=O)[C@H](CO)NC(=O)[C@H](Cc2c[nH]c3ccccc23)NC(=O)[C@@H]2CCCCNC(=O)CC[C@H](NC(=O)[C@H]3CCCN3C(=O)[C@H](CCC(=O)O)NC1=O)C(=O)N[C@@H](Cc1c[nH]c3ccccc13)C(=O)N[C@@H](CC(C)C)C(=O)N2)C(C)C [3BP-3901] (Ac-VYCE[dP]EWLKWSC-NH2; linker 3-12 via mXylylene; lactam 6-9)
